Reference: patent US10934351B2, “Cancer stem cell-specific molecule” (CHUGAI SEIYAKU KABUSHIKI KAISHA, priority 2011, dated 2021)

Key:
[1] = test system: Lgr5-positive large intestine CSCs; experiment: Cell proliferation / chemosensitivity assay (Cell Counting Kit-8), adherent CSCs; type: cell-based, human
Description: (§1) Floating and adherent CSCs were plated at about 100 and 1×10^4 cells/well in 96-well plates, respectively. On days 0 and 3, viable cell counts were determined by the Cell Counting Kit-8 Assay (Doujindo) according to the manufacturer's protocol. Average absorbance on day 0 was taken as 100%. For chemosensitivity assay, floating and adherent CSCs were plated at about 100 and 1×10^4 cells/well in 96-well plates, respectively. […] After three days of culture in the presence of the agents, the Cell Counting Kit-8 was added to the cells. The average absorbance of cells exposed to DMSO or medium alone was taken as 100%. All experiments were performed in triplicate.

[2] = test system: Lgr5-negative large intestine CSCs; experiment: Cell proliferation / chemosensitivity assay (Cell Counting Kit-8), Lgr5-negative CSCs; type: cell-based, human; conditions: for proliferation and survival of Lgr5-negative large intestine CSCs: 10 μg/ml, three days (FIGS. 10 and 24); for percentage of viable cells relative to non-treated control cells: Lgr5-negative CSCs (PLR59 and PLR123), three days, concentration series (FIG. 47)
Description: as §1

[3] = test system: tumors derived from Lgr5-positive CSCs (PLR123); experiment: Irinotecan treatment of NOG mice bearing tumors derived from Lgr5-positive CSCs; type: in vivo
Description: Mice bearing tumors derived from Lgr5-positive CSCs (PLR123) were treated with irinotecan, and their tumors were observed. Irinotecan or vehicle was administered to mice at days 12, 15, and 18 after tumor grafting. Scale bar represents 25 μm.
FIG. 55 Irinotecan was administered at a dose of 120 mg/kg/day to NOG mice at days 12, 15, and 18 after grafting tumors derived from Lgr5-positive CSCs (PLR123). This figure is a graph showing tumor volumes in control mice administered with vehicle (closed diamond) and mice administered with irinotecan (closed square or triangle). Each value represents mean+standard deviation.
FIG. 56 is a graph showing the numbers of Lgr5-positive and HLA-DMA-positive cells in xenograft tumor tissues. Thin sections of tissues were treated with Lgr5 antibody and HLA-DMA antibody, and then the numbers of Lgr5-positive and HLA-DMA-positive cells were measured. Values represent the total numbers of cells counted for respective groups (n=3).
To probe the possibility of in vivo transition to a growth inhibitor-resistant state, irinotecan was administered at the maximum tolerated dose (MTD) (120 mg/kg) into the peritoneal cavities of NOG mice bearing tumors derived from Lgr5-positive CSCs. […] By contrast, in vehicle-treated control mice, about one third of cancer cells were positive for Lgr5 in both ductal and budding areas (FIG. 54). Both Lgr5-positive cells and HLA-DMA-positive and Lgr5-negative cells were positive for EREG, and were identified to be CSCs (FIG. 54). After irinotecan treatment, Lgr5-positive cells appeared again (FIG. 54).

[4] = test system: Lgr5-positive large intestine CSCs; experiment: Change in Lgr5 expression of Lgr5-positive CSCs after chemotherapeutic treatment (flow cytometry / immunocytochemistry); type: cell-based, human; conditions: for Lgr5 state of drug-resistant cells arising from Lgr5-positive CSCs: three-day exposure, 10 μg/ml (FIGS. 11, 32, 25)
Description: Large intestine CSCs were incubated with mouse anti-human Lgr5 antibody (2T15E-2) and then with […] rat anti-mouse IgG antibody (Invitrogen) to stain Lgr5. The aldehyde dehydrogenase activity was measured using the AldeFluor Kit (Stemcell Technologies). Mouse cells were discriminated from human large intestine CSCs by staining with anti-mouse MHC class I antibody (Abcam), and PE- or APC-labeled goat […] IgG2a antibody (BioLegend). Dead cells were also removed using the 7-AAD Viability Dye (Beckman Coulter).
In addition, to assess whether Lgr5-negative large intestine CSCs undergo a transition into an Lgr5-positive state, the present inventors cultured adherently Lgr5-negative large intestine CSCs prepared via irinotecan treatment again in a serum-free stem cell culture medium. […] On the other hand, when Lgr5-positive adherent large intestine CSCs were cultured in an ultra-low adherent plate, the present inventors observed that some of the cells halted their growth and formed a spheroid-like structure and that the Lgr5 mRNA level was very low (FIGS. 12 and 33). The transition from the Lgr5-positive to Lgr5-negative state (and the reverse) was also confirmed by observations using a single cell in culture. […]
Using a stem cell medium, Lgr5-positive adherent cells were seeded at 3×10^5 cells/well in a 6-well plate (BD, Cat. No. 353046). […] After three-day culture, irinotecan-resistant cells were detected. […]
FITC-labeled mouse mAb to human CD326 (EpCAM), PE-labeled mouse mAb to human CD133/1 (AC133), PE-labeled mouse mAb to human CD44, PE-labeled mouse mAb to human CD166, PE-labeled mouse mAb to human CD24, PE-labeled mouse mAb to human CD26, or PE-labeled mouse mAb to human CD29. […] The ALDH activity was detected using AldeFluor Kit according to the procedure recommended by the manufacturer. […] Cells negative for 7-AAD Viability Dye were analyzed for cancer stem cell markers.

[5] = test system: irinotecan-non-treated PLR59; experiment: Internalization activity / anti-tumor effect with Mab-ZAP or Rat-ZAP (CellTiter-Glo); type: cell-based, human; conditions: with Mab-ZAP or Rat-ZAP 1 μg/ml, 72 hours
Description: (§2) Mab-ZAP and Rat-ZAP are anti-mouse IgG antibody and anti-rat IgG antibody, respectively, conjugated with saporin, a toxin that inhibits protein synthesis (Advanced Targeting Systems). To assess the activity of internalization into irinotecan-non-treated cells, PLR59 and PLR123 cells were seeded at a cell density of 30000 cells/80 μl/well to respective wells of a 96-well plate. Following day, each antibody solution was added at a final concentration of 0.01, 0.1, or 1 μg/ml to the respective wells. Then, Mab-ZAP or Rat-ZAP was added at a final concentration 1 μg/ml to the respective wells, and the plate was incubated at 37° C. for 72 hours in a CO2 incubator. To assess the activity of internalization into irinotecan-treated cells, PLR59 and PLR123 cells were seeded in a 96-well plate, and irinotecan was added at a final concentration of 15 μM to each well. The plate was incubated at 37° C. for 72 hours in a CO2 incubator. Various antibodies were assessed for the activity of internalization to cells cultured as described above in the presence or absence of irinotecan. For assay, the various antibodies were each assessed for the internalization activity into cells contained in each well where the medium was replaced with the same irinotecan-free medium as used for irinotecan-non-treated cells. Seventy-two hours after addition of antibodies and Mab-ZAP or Rat-ZAP, 10 μl of 3% SDS (Nacalai Tesque) was added to each well of the plate. The cells in the plate were lysed thoroughly by stirring the plate using a plate mixer. Then, 100 μl of CellTiter-Glo™ Luminescent Cell Viability Assay (Promega) was added to each well. The mixture in each well was assayed to determine its luminescent signal. […] In Table 14, symbols, −, +, ++, and +++, represent relative values for the internalization activity when a test antibody was assayed at a concentration of […]. […] Symbols, −, +, ++, and +++, indicate that the relative value is less than 5%, 5% or more and less than 15%, 15% or more and less than 25%, and 25% or more, respectively.

[6] = test system: irinotecan-non-treated PLR123; experiment: as above; type: cell-based, human; conditions: with Mab-ZAP or Rat-ZAP 1 μg/ml, 72 hours
Description: as §2

[7] = test system: irinotecan-non-treated PLR59; experiment: Flow cytometry (FCM) binding activity of commercially available antibodies to cell-surface antigens; parameters: species or system human; conditions: with antibody
Description: (§3) The present inventors tested whether an anti-tumor effect can be expected with target therapy using a membrane protein expressed at a high level as the target in irinotecan-treated or non-treated PLR59 and PLR123. Commercially available antibodies shown in Table 12 were assessed by flow cytometry (FCM) for the binding activity to antigens expressed on the cell surface of irinotecan-treated or non-treated PLR59 or PLR123.

[8] = test system: irinotecan-non-treated PLR123; experiment: as above; parameters: species or system human; conditions: with antibody
Description: as §3

[9] = 10 μg/ml, three days (FIGS. 10 and 24)
[10] = 120 mg/kg irinotecan (FIGS. 54 and 56)

CCc1c2c(nc3ccc(OC(=O)N4CCC(N5CCCCC5)CC4)cc13)-c1cc3c(c(=O)n1C2)COC(=O)[C@]3(O)CC [irinotecan]
proliferation of Lgr5-positive large intestine CSCs [1, 9]: significantly inhibited | proliferation and survival of Lgr5-negative large intestine CSCs [2]: did not affect | percentage of viable cells relative to non-treated control cells [2]: fully resistant | tumor growth ([3]; 120 mg/kg (MTD) into the peritoneal cavities, days 12, 15, 18 after grafting (FIG. 55)): inhibited almost completely | Lgr5-positive cells in tumor [3, 10]: dramatic decrease | number of Lgr5-negative and HLA-DMA-positive cells in tumor [3, 10]: increased significantly | transition of single Lgr5-positive cells into the Lgr5-negative state ([4]; single cells cultured in multi-well plate, irinotecan treatment, within three days (FIG. 49, Table 5)): underwent a transition into the Lgr5-negative state | Lgr5 state of drug-resistant cells arising from Lgr5-positive CSCs [4]: negative for Lgr5

O=c1[nH]cc(F)c(=O)[nH]1 [5-FU, fluorouracil]
proliferation of Lgr5-positive large intestine CSCs [1, 9]: significantly inhibited | proliferation and survival of Lgr5-negative large intestine CSCs [2]: did not affect | percentage of viable cells relative to non-treated control cells [2]: fully resistant | Lgr5 state of drug-resistant cells arising from Lgr5-positive CSCs [4]: negative for Lgr5

Cc1cc([N+](=O)[O-])ccc1NS(=O)(=O)c1cc(Cl)ccc1Cl [FH535]
proliferation of Lgr5-positive large intestine CSCs ([1]; 50 μM, three days of culture, PLR59 and PLR123 (FIGS. 8 and 22)): significantly reduced | proliferation of Lgr5-negative large intestine CSCs ([2]; 50 μM, three days of culture (FIGS. 8 and 22)): had no effect

COc1cc(O)cc(O)c1C(=O)/C=C/c1ccccc1 [cardamonin]
viable cell count ([1]; 50 μM, three days of culture, Lgr5-positive CSCs (FIGS. 8 and 22)): 70% | viable cell count ([2]; 50 μM, three days of culture, Lgr5-negative CSCs (FIGS. 8 and 22)): about 50%

B1: CD70 (protein, listed as Homo sapiens)
chain: MPEEGSGCSVRRRPYGCVLRAALVPLVAGLVICLVVCIQRFAQAQQQLPLESLGWDVAELQLNHTGPQQDPRLYWQGGPALGRSFLHGPELDKGQLRIHRDGIYMVHIQVTLAICSSTTASRHHPTTLAVGICSPASRSISLLRLSFHQGCTIASQRLTPLARGDTLCTNLTGTLLPSRNTDETFFGVQWVRP
internalization activity level [5]: +++ (25% or more) | internalization activity level [6]: +++ (25% or more) | binding activity by flow cytometry (FCM), Antibody + [7]: 1177 | binding activity by flow cytometry (FCM), Antibody + [8]: 1843

B2: EDAR (protein, listed as Homo sapiens)
chain: MAHVGDCTQTPWLPVLVVSLMCSARAEYSNCGENEYYNQTTGLCQECPPCGPGEEPYLSCGYGTKDEDYGCVPCPAEKFSKGGYQICRRHKDCEGFFRATVLTPGDMENDAECGPCLPGYYMLENRPRNIYGMVCYSCLLAPPNTKECVGATSGASANFPGTSGSSTLSPFQHAHKELSGQGHLATALIIAMSTIFIMAIAIVLIIMFYILKTKPSAPACCTSHPGKSVEAQVSKDEEKKEAPDNVVMFSEKDEFEKLTATPAKPTKSENDASSENEQLLSRSVDSDEEPAPDKQGSPELCLLSLVHLAREKSATSNKSAGIQSRRKKILDVYANVCGVVEGLSPTELPFDCLEKTSRMLSSTYNSEKAVVKTWRHLAESFGLKRDEIGGMTDGMQLFDRISTAGYSIPELLTKLVQIERLDAVESLCADILEWAGVVPPASQPHAAS
internalization activity level [5]: ++ (15% or more and less than 25%) | internalization activity level [6]: − (less than 5%) | binding activity by flow cytometry (FCM), Antibody + [7]: 37 | binding activity by flow cytometry (FCM), Antibody + [8]: 61
